The target in one assay is STK24 (MST3) (Homo sapiens (Human), UniProt Q9Y6E0). As to the kind of experiment: Z-lyte biochemical IC50 assay (Invitrogen). The note with it: ATP concentration matched the Km. On the procedure: (§1) STK4 (MST1), STK3 (MST2); STK24 (MST3) and MST4 Assays
(§2) Biochemical IC50s were measured at Invitrogen using Z-lyte technology. Briefly, for STK4, the 2×STK4 (MST1)/Ser/Thr 07 mixture was prepared in 50 mM HEPES pH 7.5, 0.01% BRIJ35, 10 mM MgCl2, 1 mM EGTA. The final 10 μL Kinase Reaction consisted of 6.25-160 ng STK4 (MST1) and 2 μM Ser/Thr 07 in 50 mM HEPES pH 7.5, 0.01% BRIJ-35, 10 mM MgCl2, 1 mM EGTA. After the 1 hour Kinase Reaction incubation, 5 μL of a 1:100000 dilution of Development Reagent A was added. Compounds were screened in a 10 point titration with 3-fold serial dilutions starting at a concentration of 10 μM. The biochemical IC50s against other STK family members were measured similarly. The ATP concentration used matched the Km for each kinase.

Another assay addresses STK4 (MST1) (Homo sapiens (Human), UniProt Q13043). Kind of assay: Z-lyte biochemical IC50 assay (Invitrogen). The note with it: ATP concentration matched the Km. On the procedure: as §1, §2
For a further assay, the target named is STK3 (MST2) (Homo sapiens (Human), UniProt Q13188). Kind of assay: Z-lyte biochemical IC50 assay (Invitrogen). The note with it: ATP concentration matched the Km. On the procedure:
as §1, §2

For another assay, the system named is YAP1. As to the kind of experiment: Western blotting. The note with it: H929 and MM.1S cells, 3 μM and 10 μM, 72 hours. The format is cell-based. From the text: (§3) MM.1S, KMS20 and H929 cells are counted, diluted and plated. Cells are then […] with DMSO or different concentration of a compound of the present application for 6 hrs, 24 hrs or 48 hrs. MM cells are then collected and centrifuged at RT and the pellets are re-suspended in lysis buffer. Cell lysates are subjected to sodium dodecyl sulfate-polyacrylamide gel electrophoresis SDS-PAGE, transferred to nitrocellulose membranes, and immunoblotted with different antibodies.
(§4) MM.1S, KMS20 and H929 cells were counted, diluted and plated in six-well plates to a final concentration of 500,000 cells/well. Cells were then […] with DMSO or different concentration of a compound of the present application for 6 hrs, 24 hrs or 48 hrs. MM cells were then collected and centrifuged for 5 min, 1300 rpm at RT. The pellets were re-suspended in lysis buffer Laemli 1× (Laemli 5×: SDS 10%, DTT 500 mM, Tris-HCl pH6.8 0.4M, BromoFenol Blue, Glycerol 50%). Cell lysates were subjected to sodium dodecyl sulfate-polyacrylamide gel electrophoresis SDS-PAGE, transferred to nitrocellulose membranes, and immunoblotted with different antibodies: YAP1 (#4912), p-YAP1 (S127) (#13008), LATS1 (#9153), p-LATS1 (Thr1079) (#8654), MOB1 (#3863), p-MOB1 (Thr12) (#8843), p-MST1/p-MST2 (Thr183/Thr180) (#3681), p21 (#2947), PARP (#9532), ERK, STAT, and GAPDH (#5174) from Cell Signaling, Beverly, Mass., United States; STK4 (ab57836) (from Abcam, Cambridge, Mass., United States); PUMA (sc-28226), BAX (sc-20067), from Santa Cruz, Dallas, Tex., United States; β-actin from Sigma-Aldrich (St. Louis, Mo., United States). All antibodies were diluted 1:500, except for β-actin antibody (1:50,000 dilution). In FIG. 8, H929 cells were treated with Compound I-9 or DMSO at 1 μM concentration for 24 hours. Lysates were then obtained and immunoblot was performed using antibodies against PARP, YAP1, PUMA, BAX. p21, and GAPDH.
In FIG. 10A, H929 and MM.1S cells were treated with Compound I-1 or DMSO at 1 μM and 10 μM concentrations for 16 hours. Lysates were then obtained and immunoblot was performed using antibodies against YAP1 and GAPDH.
In FIG. 12, H929 and MM. 1S cells were treated with Compound I-9, Compound I-12, or DMSO at 3 μM and 10 μM concentrations for 72 hours. Lysates were then obtained and immunoblot was performed using antibodies against YAP1 and Actin as loading control.
FIG. 13 show a Western blot of H929 and MM.1S cells treated with Compound I-13, Compound I-28, Compound I-9, KIN001-305, BMS536924, or DMSO at 1 μM concentration for 16 hours. Lysates were then obtained and immunoblot was performed using antibodies against YAP1, Actin, and pMOB1.
(In general: Immunoblotting shows a protein as a band on a membrane.)

For the next assay, the system named is p-MOB1. Kind of assay: Western blotting. The format is cell-based. The note with it: MM.1S cells, 1 μM and 10 μM, 6 hours.
Source text: as §3, §4
In FIGS. 26A-26J, MM.1S cells were treated with Compound I-6, Compound I-31, Compound I-30, Compound I-22, Compound I-27, Compound I-1, Compound I-23, Compound I-13, Compound I-28, Compound I-9, or DMSO at 1 μM and 10 μM concentrations for 6 hours. Lysates were then obtained and immunoblot was performed using antibodies against MOB1 and p-MOB1. As shown from FIGS. 26A-26J, Compound I-22, Compound I-27, Compound I-1, Compound I-23, Compound I-13, Compound I-28, and Compound I-9 reduced PMOB1 levels at different concentrations.

The next assay has as its target STK4 (Homo sapiens (Human), UniProt Q13043). As to the kind of experiment: KiNativ Platform experiment, MM.1S cell lysates, biotinylated ATP, Western blot. The note with it: 10 μM, 20 minutes, then biotinylated ATP 10 minutes. The format is binding. On the procedure: FIG. 32A and FIG. 32B show the results of a KiNativ™ Platform experiment obtained after incubating MM.1S cell lysates with 10 μM of the indicated compounds for 20 minutes, followed by incubation with biotinylated ATP for 10 minutes. FIG. 32A is a graph showing the ratio of MEK2 to STK4 derived from the Western blotting band signals in FIG. 32B, in MM.1S cell lysates treated with 10 μM of Compound I-9, I-13, or I-27 or KIN001-305 followed by incubation with biotinylated ATP. FIG. 32B is a Western blot showing the levels of STK4 and MEK2 in MM.1S cells treated with 10 μM of Compound I-9, I-13, or I-27 or KIN001-305 followed by incubation with biotinylated ATP.

SMILES strings stand for the structures. Where “and” joins values, the source holds several entries; their conditions need not be identical. Equal values may be shown once.

The text below walks through data of US10710978B2, “STK4 inhibitors for treatment of hematologic malignancies” (Dana-Farber Cancer Institute, Inc., priority 2015, dated 2020).

STK3 (MST2), sequence (Q13188 whole entry): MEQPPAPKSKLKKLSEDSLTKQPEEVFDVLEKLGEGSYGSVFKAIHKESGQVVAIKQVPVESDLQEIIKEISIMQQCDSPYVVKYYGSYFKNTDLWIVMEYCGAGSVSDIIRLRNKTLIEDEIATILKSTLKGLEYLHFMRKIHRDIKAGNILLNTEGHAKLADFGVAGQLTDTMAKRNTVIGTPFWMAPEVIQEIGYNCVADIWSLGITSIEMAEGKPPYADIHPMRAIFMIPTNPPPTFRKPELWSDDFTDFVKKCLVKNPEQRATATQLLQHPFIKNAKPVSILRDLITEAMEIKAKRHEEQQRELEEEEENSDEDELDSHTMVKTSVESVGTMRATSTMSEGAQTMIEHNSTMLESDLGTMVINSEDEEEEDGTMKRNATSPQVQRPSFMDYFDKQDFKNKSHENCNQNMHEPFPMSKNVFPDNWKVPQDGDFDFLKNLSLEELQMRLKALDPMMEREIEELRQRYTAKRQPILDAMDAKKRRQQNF
STK4 (MST1), sequence (Q13043 whole entry): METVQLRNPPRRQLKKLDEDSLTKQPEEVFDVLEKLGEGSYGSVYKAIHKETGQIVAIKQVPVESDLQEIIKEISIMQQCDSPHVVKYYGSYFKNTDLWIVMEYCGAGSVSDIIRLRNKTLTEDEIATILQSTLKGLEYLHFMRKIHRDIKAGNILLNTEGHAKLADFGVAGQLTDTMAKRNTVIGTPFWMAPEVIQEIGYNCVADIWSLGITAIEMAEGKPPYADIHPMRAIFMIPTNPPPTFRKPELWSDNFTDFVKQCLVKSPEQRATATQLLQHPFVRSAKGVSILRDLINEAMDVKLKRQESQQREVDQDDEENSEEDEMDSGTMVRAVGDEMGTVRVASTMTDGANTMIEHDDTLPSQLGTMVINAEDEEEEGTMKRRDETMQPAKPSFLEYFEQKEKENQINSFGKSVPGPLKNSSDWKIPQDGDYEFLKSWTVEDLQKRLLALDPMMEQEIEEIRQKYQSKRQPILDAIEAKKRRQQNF
STK24 (MST3), sequence (Q9Y6E0 whole entry): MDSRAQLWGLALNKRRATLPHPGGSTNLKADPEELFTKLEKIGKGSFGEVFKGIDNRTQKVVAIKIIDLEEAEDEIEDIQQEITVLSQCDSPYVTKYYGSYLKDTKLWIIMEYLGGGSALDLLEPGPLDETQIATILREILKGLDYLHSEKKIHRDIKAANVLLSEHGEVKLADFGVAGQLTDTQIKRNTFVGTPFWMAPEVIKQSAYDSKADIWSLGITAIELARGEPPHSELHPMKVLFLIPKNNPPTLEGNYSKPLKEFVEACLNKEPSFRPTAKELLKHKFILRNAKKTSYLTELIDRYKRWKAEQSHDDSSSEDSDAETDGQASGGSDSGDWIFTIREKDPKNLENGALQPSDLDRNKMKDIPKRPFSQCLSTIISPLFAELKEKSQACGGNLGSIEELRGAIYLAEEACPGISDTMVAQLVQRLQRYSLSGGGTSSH
STK4, sequence (Q13043 whole entry): as the sequence (Q13043 whole entry) above

A word on the IC50: it is the concentration that gives 50% inhibition. High values mean a need for much substance, low ones inhibition by little substance. Turning to `Nc1ncc(-c2cccc([N+](=O)[O-])c2)cc1-c1ccc2c(c1)CCNC2=O` [Compound I-2, 6-(2-amino-5-(3-nitrophenyl)pyridin-3-yl)-3,4-dihydroisoquinolin-1(2H)-one], the half-maximal inhibitory concentration (IC50) was greater than 900 nM on STK24 (MST3) and less than 40 nM against STK4 (MST1).

In the case of `Nc1ncc(-c2ccccc2F)cc1-c1ccc2c(c1)CCNC2=O` [Compound I-3, 6-(2-amino-5-(2-fluorophenyl)pyridin-3-yl)-3,4-dihydroisoquinolin-1(2H)-one], the IC50 against STK24 (MST3) is greater than 900 nM; against STK4 (MST1) it was 40 to 200 nM.

On to `Nc1ncc(-c2cc([N+](=O)[O-])ccc2Cl)cc1-c1ccc2c(c1)CCNC2=O` [Compound I-4, 6-(2-amino-5-(2-chloro-5-nitrophenyl)pyridin-3-yl)-3,4-dihydroisoquinolin-1(2H)-one], for which the IC50 against STK24 (MST3) and at STK4 (MST1) was greater than 900 nM in each case.

Turning to `Nc1ncc(-c2cnccc2F)cc1-c1ccc2c(c1)CCNC2=O` [Compound I-5, 6-(6-amino-4′-fluoro-[3,3′-bipyridin]-5-yl)-3,4-dihydroisoquinolin-1(2H)-one], the values for the concentration for half-maximal inhibition (IC50) on STK24 (MST3) and at STK4 (MST1) were greater than 900 nM and 200 to 900 nM, respectively.

As for `CCNC(=O)c1ccc(F)c(-c2cnc(N)c(-c3ccc4c(c3)CCNC4=O)c2)c1` [Compound I-6, 3-(6-amino-5-(1-oxo-1,2,3,4-tetrahydroisoquinolin-6-yl)pyridin-3-yl)-N-ethyl-4-fluorobenzamide], the concentration for half-maximal inhibition (IC50) at STK24 (MST3) and against STK4 (MST1) was greater than 900 nM in each case.

In the case of `Nc1ncc(-c2cccc(S(=O)(=O)NC3CC3)c2)cc1-c1ccc2c(c1)CCNC2=O` [Compound I-12, 3-(6-amino-5-(1-oxo-1,2,3,4-tetrahydroisoquinolin-6-yl)pyridin-3-yl)-N-cyclopropylbenzenesulfonamide], the IC50 at STK24 (MST3) was 200 to 900 nM; against STK3 (MST2) it was 40 to 200 nM; against STK4 (MST1), 40 to 200 nM. For the same compound, in the assay with YAP1, the YAP1 levels result is recorded as “upregulation”.

As for `Nc1ncc(-c2cc([N+](=O)[O-])c(Cl)cc2F)cc1-c1ccc2c(c1)CCNC2=O` [Compound I-22, 6-(2-amino-5-(4-chloro-2-fluoro-5-nitrophenyl)pyridin-3-yl)-3,4-dihydroisoquinolin-1(2H)-one], the half-maximal inhibitory concentration (IC50) against STK3 (MST2) and against STK4 (MST1) was 40 to 200 nM each time. Further, the PMOB1 levels result in the assay on p-MOB1 was “reduced”.

Consider `Nc1ncc(-c2cc3c(cc2F)OCC(=O)N3)cc1-c1ccc2c(c1)CCNC2=O` [Compound I-23, 6-(6-amino-5-(1-oxo-1,2,3,4-tetrahydroisoquinolin-6-yl)pyridin-3-yl)-7-fluoro-2H-benzo[b][1,4]oxazin-3(4H)-one], for which the half-inhibitory concentration (IC50) on STK3 (MST2) is 40 to 200 nM; against STK4 (MST1), less than 40 nM. Besides, the PMOB1 levels result with p-MOB1 was “reduced”.

For the compound `Nc1ncc(-c2cc([N+](=O)[O-])c(NCc3ccccc3)cc2F)cc1-c1ccc2c(c1)CCNC2=O` [Compound I-27, 6-(2-amino-5-(4-(benzylamino)-2-fluoro-5-nitrophenyl)pyridin-3-yl)-3,4-dihydroisoquinolin-1(2H)-one], at STK4 (MST1), the IC50 fell in the range of 40 to 200 nM. The “affinity for STK4, as of ATP binding” value at STK4 was “highest affinity”. Moreover, the PMOB1 levels result in the assay on p-MOB1 is “reduced”.

`Nc1ncc(-c2cccc(S(N)(=O)=O)c2)cc1-c1ccc2c(c1)CCNC2=O` [Compound I-71, 3-(6-amino-5-(1-oxo-1,2,3,4-tetrahydroisoquinolin-6-yl)pyridin-3-yl)benzenesulfonamide] returned an IC50 against STK4 (MST1) of 200 to 900 nM.

For `COc1cc(S(=O)(=O)N(C)C2CC2)ccc1-c1cnc(N)c(-c2ccc3c(c2)CCNC3=O)c1` [Compound I-72, 4-(6-amino-5-(1-oxo-1,2,3,4-tetrahydroisoquinolin-6-yl)pyridin-3-yl)-N-cyclopropyl-3-methoxy-N-methylbenzenesulfonamide], the IC50 against STK24 (MST3) was 40 to 200 nM; on STK3 (MST2) it was less than 40 nM; at STK4 (MST1), less than 40 nM.

For `Nc1ncc(-c2cc3scnc3cc2F)cc1-c1ccc2c(c1)CCNC2=O` [Compound I-73, 6-(2-amino-5-(5-fluorobenzo[d]thiazol-6-yl)pyridin-3-yl)-3,4-dihydroisoquinolin-1(2H)-one], the IC50 on STK4 (MST1) is 40 to 200 nM.

`CN(C1CC1)S(=O)(=O)c1ccc(-c2cnc(N)c(-c3ccc4c(c3)CNC4=O)c2)c(F)c1` [Compound I-74, 4-(6-amino-5-(1-oxoisoindolin-5-yl)pyridin-3-yl)-N-cyclopropyl-3-fluoro-N-methylbenzenesulfonamide]: the IC50 against STK24 (MST3) is greater than 900 nM; at STK3 (MST2), less than 40 nM; on STK4 (MST1), < 40 nM and 40 to 200 nM.

For the compound `N#Cc1cccc(-c2cnc(N)c(-c3ccc4c(c3)CCNC4=O)c2)c1` [Compound I-75, 3-(6-amino-5-(1-oxo-1,2,3,4-tetrahydroisoquinolin-6-yl)pyridin-3-yl)benzonitrile], the IC50 on STK24 (MST3) is 200 to 900 nM; on STK3 (MST2), 40 to 200 nM; at STK4 (MST1) it was 40 to 200 nM.

For the compound `Nc1ncc(-c2scnc2Cl)cc1-c1ccc2c(c1)CCNC2=O` [Compound I-76, 6-(2-amino-5-(4-chlorothiazol-5-yl)pyridin-3-yl)-3,4-dihydroisoquinolin-1(2H)-one], the concentration for half-maximal inhibition (IC50) is greater than 900 nM against STK24 (MST3); 40 to 200 nM against STK3 (MST2); < 40 nM and 40 to 200 nM on STK4 (MST1).

`Nc1ncc(-c2scnc2Cl)cc1-c1ccc2c(c1)CCNC2=O` [Compound I-77, 6-(2-amino-5-(4-chlorothiazol-5-yl)pyridin-3-yl)-3,4-dihydroisoquinolin-1(2H)-one] yielded a 50% inhibitory concentration (IC50) on STK4 (MST1) of 40 to 200 nM.

With `CN(C1CC1)S(=O)(=O)c1ccc(-c2cnc(N)c(-c3ccc4c(c3)CCNC4=O)c2)cc1` [KIN001-305, reference compound], on STK4 (MST1), the half-maximal inhibitory concentration (IC50) is less than 40 nM. Besides, on STK4, the “affinity for STK4, as of ATP binding” value was “highest affinity”.
